Experiments:
Format in all cases: in vivo, New Zealand White rabbit
[1] = test system: 0.2% Cholesterol-Fed New Zealand White Rabbits; test: Serum total, LDL and HDL cholesterol and triglycerides in 0.2% cholesterol-fed rabbits, concurrent 0.4% drug (Example 20); set-up: triglycerides: reference not given here; details: 0.2% cholesterol/0.4% drug diet; for cholesterol (total) % Control / HDL cholesterol % Control / LDL cholesterol % Control: % of control; for HDL cholesterol % Control / LDL cholesterol % Control: serum, gel filtration HPLC
Source text: (§1) NZW rabbits (female, aged 3-4 months, weighing less than 3 Kg), six in each group, were fed a control diet of 0.2% cholesterol (100 g rabbit chow daily containing 0.2 g cholesterol) or a diet of 0.2% cholesterol/0.4% drug (100 g rabbit chow daily containing 0.2 g cholesterol and 0.4 g of drag). For Compound A, the rabbits were sacrificed by intravenous injection of pentobarbital after 56 days. For Compound G, K, E and H, the rabbits were sacrificed by intravenous injection of pentobarbital after 7 days. Plasma or serum was collected and cholesterol levels were determined using the enzymatic method of Mao, et at., Clin. Chem. (1983) 29:1890-1897. Liver weight and body weights were determined. Serum HDL and LDL cholesterol levels were determined using gel filtration HPLC modified from Kieft, K. A., et at., J. Lipid Res., 32:859-861 (1991), using Roche enzymatic cholesterol reagents. Triglyceride levels were determined by Cobas Automated Analyzer using Roche enzymatic reagents.

[2] = test system: 0.2% Cholesterol-Fed New Zealand White Rabbits; test: Liver weight / body weight ratio in 0.2% cholesterol-fed rabbits, concurrent 0.4% drug (Example 20); details: 0.2% cholesterol/0.4% drug diet
Source text: as §1

[3] = test system: 1% Cholesterol-Fed New Zealand White Rabbits; test: Reduction of cholesterol levels of 1% cholesterol-fed rabbits by concurrent administration of 0.5% Compound A (Example 18); details: 1% cholesterol/0.5% drug diet; for Cholesterol: plasma or serum, n = 6
Experimental: New Zealand Whim (NZW) rabbits (female, aged 3-4 months, weighing less than 3 kg) six in each group, were fed a control diet of 1% cholesterol (100 g rabbit chow daily containing 1 g cholesterol) or a diet of 1% cholesterol/0.5% drag (100 g rabbit chow daily containing 1 g cholesterol and 0.5 g Compound A). After 56 days, the rabbits were sacrificed by intravenous injection of pentobarbital. Plasma or serum was collected and cholesterol levels were determined using the enzymatic method of Mao, et at., Clin. Chem. (1983) 29:1890-1897.

[4] = test system: 0.2% Cholesterol-Fed New Zealand White Rabbits; test: Reduction of cholesterol levels of 0.2% cholesterol-fed rabbits by concurrent administration of 0.4% Compound A (Example 19); details: for Cholesterol: plasma or serum, n = 6
Experimental: NZW rabbits (female, aged 3-4 months, weighing less than 3 Kg), six in each group, were fed a control diet of 0.2% cholesterol (100 g rabbit chow daily containing 0.2 g cholesterol) or a diet of 0.2% cholesterol/0.4% drag (100 g rabbit chow daily containing 0.2 g cholesterol and 0.4 g Compound A). After 56 days, the rabbits were sacrificed by intravenous injection of pentobarbital. Plasma or serum was collected and cholesterol levels were determined using the enzymatic method of Mao, et at., Clin. Chem. (1983) 29: 1890-1897.

[5] = test system: Normolipidemic New Zealand Rabbits; test: Reduction in cholesterol levels of normolipidemic rabbits by concurrent administration of 0.5% Compound A (Example 21); details: normal diet with 0.5% drug; for Cholesterol: serum, n = 4
Experimental: New Zealand White rabbits (female, aged 3-4 months, weighing less than 3 kg), four in each group, were fed a normal diet (100 g rabbit chow daily) or a diet of 0.5% drug (100 g rabbit chow daily containing 0.5 g Compound A). Serum was collected and cholesterol levels were determined according to the method of Mao, et at., Clin. Chem. (1983) 29:1890-1897.

## COc1ccccc1[Si](C)(C)COc1cc(C(C)(C)C)c(O)c(C(C)(C)C)c1 [Compound K, 2,6-Di-t-butyl-4-[(dimethy 1-2-methoxyphenylsilyl)methyloxy]phenol]
[1]; 7 days
  triglycerides: 131%
  cholesterol (total) % Control: 77%
  HDL cholesterol % Control: 217%
  LDL cholesterol % Control: 61%
[2]; 7 days
  liver wt/body wt ratio: 90%

## CC(C)(C)c1cc(OC[Si](C)(C)c2ccccc2)cc(C(C)(C)C)c1O [Compound G]
[1]; 7 days
  triglycerides: 104%
  cholesterol (total) % Control: 72%
  HDL cholesterol % Control: 81%
  LDL cholesterol % Control: 69%
[2]; 7 days
  liver wt/body wt ratio: 104%

## CC(C)(C)c1cc(OC[Si](C)(C)c2ccc(Cl)cc2)cc(C(C)(C)C)c1O [E, 2,6 Di-t-butyl-4[(4-chlorophenyldimethylsilyl)methyloxy]phenol]
[1]; 7 days
  triglycerides: 82%
  cholesterol (total) % Control: 87%
  HDL cholesterol % Control: 109%
  LDL cholesterol % Control: 89%
[2]; 7 days
  liver wt/body wt ratio: 93%

## CC(C)(C)c1cc(SC[Si](C)(C)c2ccccc2)cc(C(C)(C)C)c1O [Compound A, 2,6-Di-t-butyl-4[(dimethylphenylsilyl)methylthio]phenol]
[3]; day 0
  Cholesterol: 59 ± 8 mg/dL
[3]; day 14
  Cholesterol: 684 ± 99 mg/dL
[3]; day 28
  Cholesterol: 954 ± 126 mg/dL
[3]; day 42
  Cholesterol: 1118 ± 164 mg/dL
[3]; day 56
  Cholesterol: 1035 ± 152 mg/dL
[3]; day 56, vs control
  reduction of serum cholesterol: 57%
[4]; 56 days, 0.2% cholesterol/0.4% drug diet
  reduction of cholesterol: 64%
[4]; administration for 56 days, 0.2% cholesterol-fed rabbits
  cholesterol lowering (in words): significant cholesterol lowering
[4]; day 0, 0.2% cholesterol/0.4% drug diet
  Cholesterol: 66 ± 8 mg/dL
[4]; day 7, 0.2% cholesterol/0.4% drug diet
  Cholesterol: 154 ± 17 mg/dL
[4]; day 14, 0.2% cholesterol/0.4% drug diet
  Cholesterol: 223 ± 32 mg/dL
[4]; day 28, 0.2% cholesterol/0.4% drug diet
  Cholesterol: 291 ± 59 mg/dL
[4]; day 42, 0.2% cholesterol/0.4% drug diet
  Cholesterol: 357 ± 89 mg/dL
[4]; day 56, 0.2% cholesterol/0.4% drug diet
  Cholesterol: 337 ± 100 mg/dL
[1]; 56 days
  triglycerides: 366%
  cholesterol (total) % Control: 52%
  HDL cholesterol % Control: 75%
  LDL cholesterol % Control: 42%
[2]; 56 days
  liver wt/body wt ratio: 120%
[5]; day 0
  Cholesterol: 43.5 ± 4 mg/dL
[5]; day 8
  Cholesterol: 69.7 ± 6 mg/dL
[5]; day 14
  Cholesterol: 54.8 ± 8 mg/dL
[5]; day 23, compared to control rabbits
  level of cholesterol significantly reduced by: about 29%
[5]; day 23
  Cholesterol: 58.3 ± 6 mg/dL

## COc1ccc([Si](C)(C)COc2cc(C(C)(C)C)c(O)c(C(C)(C)C)c2)cc1 [Compound H, 2,6-Di-t-butyl-4[(dimethyl-4-methoxyphenylsilyl)methyloxy]phenol]
[1]; 7 days
  triglycerides: 73%
  cholesterol (total) % Control: 54%
  HDL cholesterol % Control: 123%
  LDL cholesterol % Control: 66%
[2]; 7 days
  liver wt/body wt ratio: 110%
